Patent US12180193B2, “Accelerating fibrosarcoma protein degrading compounds and associated methods of use” (Arvinas Operations, Inc., priority 2020, dated 2024)

Legend:
BRAF V600E = biological target: T1, BRAF V600E (Homo sapiens, UniProt P15056, V600E); assay: Cellular assay of target protein degradation, T-Rex 293 cells stably transfected with HA-BRAF_V600E (HA immunofluorescence, high content imaging); type: cell-based; conditions: T-Rex 293 HA-BRAF V600E; for DC50: half maximal degradation, read-out: BRaf V600E DC50; for Dmax: maximum degradation observed
T1 construct: expressed in transfected cells
Procedure: Protocol for a cellular assay of target protein degradation (T-Rex 293 cells). T-Rex 293 cells were purchased from Invitrogen (#R71007), and stably transfected with a pcDNA4/TO_HA-BRAF_V600E construct, using 400 ug Zeocin for selection. V600e cells are plated in Dulbecco's Modified Eagle Medium (DMEM; Gibco #11965118) containing 10% fetal bovine serum (FBS; Gibco #16000044) and 1 ng/mL doxycycline (Selleckchem #4163) at a density of 5,000 cells/well in 50 μl on poly-D-lysine (PDL) coated, black clear bottom 96-well plates (Corning #354640) and incubated for 24 hours at 37° C. with 5% C02. The following day 50 ul of tested compound was added at 2x concentration in DMEM with a final concentration ranging from 1 μM to 0.1 nM in 0.1% dimethylsulfoxide (DMSO), and incubated for 24 hours at 37° C. with 5% CO2. At the end of the experimental treatment, the media was flicked off and cells washed once with phosphate-buffered saline (PBS)++ (PBS with CaCl and MgCl) and gently replacing with 200 μl PBS++ per well. The PBS++ was removed and 50 uL 4% paraformaldehyde (PFA; EMS #15710) in PBS++ was added, and incubate at room temperature for 15 minutes. Cells were washed once with PBS++ and 50 uL 0.1% Triton X-100 (Fisher #BP151-500) in PBS++ was added. Plate was incubate for 5 minutes at room temperature. Cells were was once with PBS++. Cells were blocked with 100 uL Licor blocking buffer (Licor #927-50000) for 1 hour at room temperature. Next, 50 uL of HA antibody (CST #3724) at 1:1000 in Licor blocking buffer was added, and the plate incubate overnight at 4° C. The plates were parafilmed to prevent evaporation. Plate was washed three times with 200 uL PBS++. Fifty microliters of HCS secondary antibody solution [1:1000 Hoechst (Invitrogen #H3570), 1:1000 phalloidin (Invitrogen #A22287) and 1:5000 Alexa fluor (Invitrogen #A11008)] was added and incubated for 1 hour. Plate was wash three times with 200 uL PBS++, and imaged on a high content reader (ImageXpress Micro XLS, Molecular Devices).
(§1) The concentration of exemplary compound that leads to half maximal degradation (DC50) as well as the maximum degradation observed (Dmax, conventionally expressed as a percentage of control), which are below in Table 2 for the exemplary compounds of Table 1.

BRAF G466V = biological target: T2, BRAF G466V (Homo sapiens, UniProt P15056, G466V); assay: Cellular assay of target protein degradation, T-Rex 293 cells stably transfected with HA-BRAF G466V (HA immunofluorescence, high content imaging); type: cell-based; conditions: T-Rex 293 HA-BRAF G466V; for DC50: half maximal degradation, read-out: BRaf G466V DC50; for Dmax: maximum degradation observed
T2 construct: expressed in transfected cells
Procedure: Protocol for a cellular assay of target protein degradation (T-Rex 293 cells). T-Rex 293 cells were purchased from Invitrogen (#R71007), and stably transfected with a pcDNA4/TO_HA-BRAF G466V construct, using 400 ug Zeocin for selection. G466V cells are plated in Dulbecco's Modified Eagle Medium (DMEM; Gibco #11965118) containing 10% fetal bovine serum (FBS; Gibco #16000044) and 0.75 ng/mL doxycycline (Selleckchem #4163) at a density of 5,000 cells/well in 50 μl on poly-D-lysine (PDL) coated, black clear bottom 96-well plates (Corning #354640) and incubated for 24 hours at 37° C. with 5% CO2. The following day 50 ul of tested compound was added at 2x concentration in DMEM with a final concentration ranging from 30 nM to 3 pM in 0.1% dimethylsulfoxide (DMSO), and incubated for 24 hours at 37° C. with 5% CO2. At the end of the experimental treatment, the media was flicked off and cells washed once with phosphate-buffered saline (PBS)++ (PBS with CaCl and MgCl) and gently replacing with 200 μl PBS++ per well. The PBS++ was removed and 50 uL 4% paraformaldehyde (PFA; EMS #15710) in PBS++ was added, and incubate at room temperature for 15 minutes. Cells were washed once with PBS++ and 50 uL 0.1% Triton X-100 (Fisher #BP151-500) in PBS++ was added. Plate was incubate for 5 minutes at room temperature. Cells were was once with PBS++. Cells were blocked with 100 uL Licor blocking buffer (Licor #927-50000) for 1 hour at room temperature. Next, 50 uL of HA antibody (CST #3724) at 1:1000 in Licor blocking buffer was added, and the plate incubate overnight at 4° C. The plates were parafilmed to prevent evaporation. Plate was washed three times with 200 uL PBS++. Fifty microliters of HCS secondary antibody solution [1:1000 Hoechst (Invitrogen #H3570), 1:1000 phalloidin (Invitrogen #A22287) and 1:5000 Alexa fluor (Invitrogen #A11008)] was added and incubated for 1 hour. Plate was wash three times with 200 uL PBS++, and imaged on a high content reader (ImageXpress Micro XLS, Molecular Devices).
as §1

T2 sequence (P15056 whole entry G466V): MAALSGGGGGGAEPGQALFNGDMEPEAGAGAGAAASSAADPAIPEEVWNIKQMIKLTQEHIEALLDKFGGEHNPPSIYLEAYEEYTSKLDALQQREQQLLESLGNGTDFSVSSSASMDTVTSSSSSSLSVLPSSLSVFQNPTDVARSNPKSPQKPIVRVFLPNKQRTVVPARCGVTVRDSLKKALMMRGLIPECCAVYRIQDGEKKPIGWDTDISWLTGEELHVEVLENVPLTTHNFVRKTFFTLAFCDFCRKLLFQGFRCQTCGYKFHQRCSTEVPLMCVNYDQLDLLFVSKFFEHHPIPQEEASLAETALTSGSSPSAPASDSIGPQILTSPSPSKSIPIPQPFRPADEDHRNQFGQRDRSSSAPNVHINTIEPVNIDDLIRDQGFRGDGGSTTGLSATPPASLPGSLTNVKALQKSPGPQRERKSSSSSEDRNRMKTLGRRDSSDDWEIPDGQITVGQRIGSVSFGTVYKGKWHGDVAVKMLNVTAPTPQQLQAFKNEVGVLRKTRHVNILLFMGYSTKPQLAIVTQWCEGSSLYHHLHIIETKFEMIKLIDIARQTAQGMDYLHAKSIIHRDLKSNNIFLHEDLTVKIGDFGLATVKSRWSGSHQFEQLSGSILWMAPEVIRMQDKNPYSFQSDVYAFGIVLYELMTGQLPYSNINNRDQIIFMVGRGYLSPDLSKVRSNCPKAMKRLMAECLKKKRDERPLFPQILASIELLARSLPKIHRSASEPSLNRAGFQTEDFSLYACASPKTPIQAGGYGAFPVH
T1 sequence (P15056 whole entry V600E): as the sequence (P15056 whole entry G466V) above, with V466G, V600E counted along it

SMILES | DC50 (BRAF V600E) | Dmax (BRAF V600E) | DC50 (BRAF G466V) | Dmax (BRAF G466V)
O=C1CCC(N2Cc3cc(C4CCN(C[C@H]5C[C@H]6CC[C@@H](C5)N6c5ccc(-c6cnc7[nH]cc(C(=O)c8c(F)ccc(NS(=O)(=O)N9CC[C@@H](F)C9)c8F)c7c6)cc5)CC4)ccc3C2=O)C(=O)N1 (stereo partly drawn) [Compound 188, (3R)-N-[3-(5-{4-[(1R,3R,5S)-3-({4-[2-(2,6-dioxopiperidin-3-yl)-1-oxo-2,3-dihydro-1H-isoindol-5-yl]piperidin-1-yl}methyl)-8-azabicyclo[3.2.1]octan-8-yl]phenyl}-1H-pyrrolo[2,3-b]pyridine-3-carbonyl)-2,4-difluorophenyl]-3-fluoropyrrolidine-1-sulfonamide] | 5 to 50 nM | 35 to 70% | 1 to 10 nM | > 70%
O=C1CCC(c2ccc(C3CCN(CC4CCN(c5ccc(-c6cnc7[nH]cc(C(=O)c8c(F)ccc(NS(=O)(=O)N9CC[C@@H](F)C9)c8F)c7c6)cc5)CC4)CC3)cc2)C(=O)N1 (stereo partly drawn) [Compound 189, (3R)-N-[3-(5-{4-[4-({4-[4-(2,6-dioxopiperidin-3-yl)phenyl]piperidin-1-yl}methyl)piperidin-1-yl]phenyl}-1H-pyrrolo[2,3-b]pyridine-3-carbonyl)-2,4-difluorophenyl]-3-fluoropyrrolidine-1-sulfonamide] | 5 to 50 nM | 35 to 70% | < 1 nM | 35 to 70%
O=C1CCC(N2Cc3cc(N4CC(C5CN(CC6CCN(c7ccc(-c8cnc9[nH]cc(C(=O)c%10c(F)ccc(NS(=O)(=O)N%11CC[C@@H](F)C%11)c%10F)c9c8)cc7)CC6)C5)C4)ccc3C2=O)C(=O)N1 (stereo partly drawn) [Compound 227, (3R)-N-[3-(5-{4-[4-({1′-[2-(2,6-dioxopiperidin-3-yl)-1-oxo-2,3-dihydro-1H-isoindol-5-yl]-[3,3′-biazetidin]-1-yl}methyl)piperidin-1-yl]phenyl}-1H-pyrrolo[2,3-b]pyridine-3-carbonyl)-2,4-difluorophenyl]-3-fluoropyrrolidine-1-sulfonamide] | 5 to 50 nM | < 35% | 1 to 10 nM | > 70%
O=C1CC[C@@H](N2Cc3cc(OC[C@@H](O)CN4CC5(C4)CN(c4ccc(-c6cnc7[nH]cc(C(=O)c8c(F)ccc(NS(=O)(=O)N9CC[C@@H](F)C9)c8F)c7c6)cc4)C5)ccc3C2=O)C(=O)N1 [Compound 166, (3R)-N-{3-[5-(4-{6-[(2)S-3-({2-[(3R)-2,6-dioxopiperidin-3-yl]-1-oxo-2,3-dihydro-1H-isoindol-5-yl}oxy)-2-hydroxypropyl]-2,6-diazaspiro[3.3]heptan-2-yl}phenyl)-1H-pyrrolo[2,3-b]pyridine-3-carbonyl]-2,4-difluorophenyl}-3-fluoropyrrolidine-1-sulfonamide] | 5 to 50 nM | 35 to 70% | 1 to 10 nM | > 70%
O=C1CC[C@@H](NC(=O)c2ccc(N3CC4(CN(CC5CCN(c6ccc(-c7cnc8[nH]cc(C(=O)c9c(F)ccc(NS(=O)(=O)N%10CC[C@@H](F)C%10)c9F)c8c7)cc6)CC5)C4)C3)cc2F)C(=O)N1 [Compound 37, 4-(6-{[1-(4-{3-[2,6-difluoro-3-({[(3R)-3-fluoropyrrolidin-1-yl]sulfonyl}amino)benzoyl]-1H-pyrrolo[2,3-b]pyridin-5-yl}phenyl)piperidin-4-yl]methyl}-2,6-diazaspiro[3.3]heptan-2-yl)-N-[(3R)-2,6-dioxopiperidin-3-yl]-2-fluorobenzamide] | 5 to 50 nM | < 35% | 1 to 10 nM | 35 to 70%
O=C1CC[C@H](NC(=O)N2CCCc3c(N4CC5(CN(CCc6ccc(-c7cnc8[nH]cc(C(=O)c9c(F)ccc(NS(=O)(=O)N%10CC[C@@H](F)C%10)c9F)c8c7)cc6)C5)C4)ccnc32)C(=O)N1 [Compound 379, 5-{6-[2-(4-{3-[2,6-difluoro-3-({[(3R)-3-fluoropyrrolidin-1-yl]sulfonyl}amino)benzoyl]-1H-pyrrolo[2,3-b]pyridin-5-yl}phenyl)ethyl]-2,6-diazaspiro[3.3]heptan-2-yl}-N-[(3S)-2,6-dioxopiperidin-3-yl]-1,2,3,4-tetrahydro-1,8-naphthyridine-1-carboxamide] | 50 to 500 nM | 35 to 70% | 1 to 10 nM | 35 to 70%

Other lines, results leading:

DC50 (BRAF V600E) | Dmax (BRAF V600E) | DC50 (BRAF G466V) | Dmax (BRAF G466V) | SMILES
5 to 50 nM | 35 to 70% | < 1 nM | > 70% | N#Cc1cc(-c2cnc3[nH]cc(C(=O)c4c(F)ccc(NS(=O)(=O)N5CC[C@@H](F)C5)c4F)c3c2)ccc1N1CCC(CN2CCC(c3ccc4c(c3)CN(C3CCC(=O)NC3=O)C4=O)CC2)CC1 (stereo partly drawn) [Compound 255, (3R)-N-[3-(5-{3-cyano-4-[4-({4-[2-(2,6-dioxopiperidin-3-yl)-1-oxo-2,3-dihydro-1H-isoindol-5-yl]piperidin-1-yl}methyl)piperidin-1-yl]phenyl}-1H-pyrrolo [2,3-b]pyridine-3-carbonyl)-2,4-difluorophenyl]-3-fluoropyrrolidine-1-sulfonamide]
5 to 50 nM | < 35% | 1 to 10 nM | < 35% | O=C1CCC(NC(=O)c2ccc(N3CCC(CN4CC5(C4)CN(c4ccc(-c6cnc7[nH]cc(C(=O)c8c(F)ccc(NS(=O)(=O)N9CC[C@@H](F)C9)c8F)c7c6)cc4)C5)CC3)cn2)C(=O)N1 (stereo partly drawn) [Compound 354, 5-(4-{[6-(4-{3-[2,6-difluoro-3-({[(3R)-3-fluoropyrrolidin-1-yl]sulfonyl}amino)benzoyl]-1H-pyrrolo[2,3-b]pyridin-5-yl}phenyl)-2,6-diazaspiro[3.3]heptan-2-yl]methyl}piperidin-1-yl)-N-(2,6-dioxopiperidin-3-yl)pyridine-2-carboxamide]
50 to 500 nM | 35 to 70% | 1 to 10 nM | 35 to 70% | O=C1CC[C@H](NC(=O)c2ccc(C3CCN(CC4CCN(c5ncc(-c6cnc7[nH]cc(C(=O)c8c(F)ccc(NS(=O)(=O)N9CC[C@@H](F)C9)c8F)c7c6)cn5)CC4)CC3)cc2F)C(=O)N1 [Compound 375, 4-(1-{[1-(5-{3-[2,6-difluoro-3-({[(3R)-3-fluoropyrrolidin-1-yl]sulfonyl}amino)benzoyl]-1H-pyrrolo[2,3-b]pyridin-5-yl}pyrimidin-2-yl)piperidin-4-yl]methyl}piperidin-4-yl)-N-[(3S)-2,6-dioxopiperidin-3-yl]-2-fluorobenzamide]
50 to 500 nM | < 35% | > 30 nM |  | O=C1CCC(N2Cc3cc(N4CCC(CCC5CCN(c6ccc(-c7cnc8[nH]cc(C(=O)c9c(F)ccc(NS(=O)(=O)N%10CC[C@@H](F)C%10)c9F)c8c7)cc6)CC5)CC4)ccc3C2=O)C(=O)N1 (stereo partly drawn) [Compound 308, (3R)-N-[3-(5-{4-[4-(2-{1-[2-(2,6-dioxopiperidin-3-yl)-1-oxo-2,3-dihydro-1H-isoindol-5-yl]piperidin-4-yl}ethyl)piperidin-1-yl]phenyl}-1H-pyrrolo[2,3-b]pyridine-3-carbonyl)-2,4-difluorophenyl]-3-fluoropyrrolidine-1-sulfonamide]
